The target of one experiment is T1, c-Kit(V654A) (Homo sapiens, UniProt P10721, V654A).
T1 construct: recombinant human c-Kit, amino acids 544-end containing the V654A mutation; GST (N)
Briefly: c-Kit(V654A) assay (33P-ATP filter binding kinase assay). In kind it is biochemical. The note with it: recombinant human c-Kit aa 544-end V654A, ATP 200 μM. On the procedure:
c-Kit(V654A) (N-terminal GST-tagged, recombinant human c-Kit, amino acids 544-end containing the V654A mutation) is incubated with 8 mM MOPS pH 7.0, 0.2 mM EDTA, 250 μM GGMEDIYEFMGGKKK, 10 mM MgAcetate and [gamma-33P-ATP] (specific activity approx. 500 cpm/pmol, concentration 200 μM). The reaction is initiated by the addition of the MgATP mix. After incubation for 40 minutes at room temperature, the reaction is stopped by the addition of 3% phosphoric acid solution. 10 μL of the reaction is then spotted onto a P30 filtermat and washed three times for 5 minutes in 75 mM phosphoric acid and once in methanol prior to drying and scintillation counting.

Experiment [1] concerns the target T2, GIST430/654 cell line expressing mutated constitutively active cKIT receptor tyrosine kinase (Δ560-576 deletion and V654A point mutation) (Homo sapiens, UniProt P10721, DEL560-576/V654A).
T2 construct: endogenous in cells; host or cells: GIST430/654 cells
Briefly: Cellular cKIT autophosphorylation (phospho-Y307-cKIT, Luminex bead assay) in GIST430/654 cells. In kind it is cell-based. Conditions: compounds 45 min, read-out: GIST 430/654 IC50. The method, then: Assay Principle for Cellular Testing of cKIT Mutant Inhibitors
The GIST430 cell line expressing constitutive active cKIT receptor tyrosine kinase (Δ560-576 deletion) and the Imatinib resistant GIST430/654 cell line expressing mutated constitutively active cKIT receptor tyrosine kinase (Δ560-576 deletion and V654A point mutation) were employed for assessing cellular potency of compounds. Cellular activity of mutant cKIT was determined by the degree of cKIT autophosphorylation at tyrosine 307 using a Luminex-based bead assay. GIST430 cells were plated with 22,000 cells per well of a 96-well plate in 100 μl medium (85% IMDM/15% FCS) and GIST430/654 cells were plated with 25,000 cells per well of a 96-well plate in 100 μl medium (85% IMDM/15% FCS supplemented with 100 nM Imatinib). At the following day compounds were added in a serial dilution for 45 min. Then, cells were lysed with 90 μl lysis buffer (20 mM Hepes pH 7.5, 200 mM NaCl, 1.5 mM MgCl2×6H2O, 0.4 mM EDTA, 1% Triton-X-100, 1% Phosphatase-Inhibitor II, 20 mM β-Glycerolphosphat, 0.1% Protease-Inhibitor Cocktail III, 0.01% Benzonase) and lysates were cleared by centrifugation through a 96-well filter plate (0.65 μm). Samples were incubated with Luminex-beads which were coupled with an anti-total cKIT antibody overnight at 4° C. under gentle agitation. For detection of phospho-Y307-cKIT a phosphospecific antibody and a species-specific PE-labeled secondary antibody were added. The amount of phospho-Y307-cKIT was determined in a Luminex 200 instrument measuring 100 events per well within 60 seconds.
Counts from samples treated with compounds were calculated as percent of control from solvent treated (0.3% DMSO) samples. Dose-response curves were fitted and IC50 values were determined using Genedata Screener software.

Each structure is given as a SMILES string.

T2 sequence (P10721 with tags, fused parts or gaps DEL560-576/V654A): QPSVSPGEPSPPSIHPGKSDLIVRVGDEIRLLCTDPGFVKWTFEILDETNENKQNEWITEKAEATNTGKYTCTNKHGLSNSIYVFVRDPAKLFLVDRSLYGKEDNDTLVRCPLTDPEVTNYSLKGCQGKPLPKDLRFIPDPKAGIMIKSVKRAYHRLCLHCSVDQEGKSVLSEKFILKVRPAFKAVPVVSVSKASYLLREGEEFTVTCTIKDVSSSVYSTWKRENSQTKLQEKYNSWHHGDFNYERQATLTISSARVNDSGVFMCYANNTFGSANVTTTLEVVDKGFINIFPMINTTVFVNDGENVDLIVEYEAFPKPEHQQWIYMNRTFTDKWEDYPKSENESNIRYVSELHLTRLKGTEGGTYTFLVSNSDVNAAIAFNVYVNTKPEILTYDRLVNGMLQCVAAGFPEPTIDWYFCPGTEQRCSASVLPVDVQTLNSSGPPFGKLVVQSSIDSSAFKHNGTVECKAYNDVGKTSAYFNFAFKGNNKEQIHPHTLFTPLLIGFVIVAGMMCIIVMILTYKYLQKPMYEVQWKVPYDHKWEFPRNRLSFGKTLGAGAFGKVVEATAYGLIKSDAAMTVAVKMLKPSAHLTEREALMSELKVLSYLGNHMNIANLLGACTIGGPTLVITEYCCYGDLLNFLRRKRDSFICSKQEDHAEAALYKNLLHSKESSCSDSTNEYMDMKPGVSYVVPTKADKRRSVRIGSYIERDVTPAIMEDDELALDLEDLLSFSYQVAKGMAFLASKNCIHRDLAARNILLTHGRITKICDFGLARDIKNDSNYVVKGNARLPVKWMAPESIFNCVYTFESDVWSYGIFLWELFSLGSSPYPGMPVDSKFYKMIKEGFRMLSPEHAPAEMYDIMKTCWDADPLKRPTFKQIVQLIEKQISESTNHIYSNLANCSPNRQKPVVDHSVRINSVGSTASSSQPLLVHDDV
T1 sequence (P10721 544-976 V654A): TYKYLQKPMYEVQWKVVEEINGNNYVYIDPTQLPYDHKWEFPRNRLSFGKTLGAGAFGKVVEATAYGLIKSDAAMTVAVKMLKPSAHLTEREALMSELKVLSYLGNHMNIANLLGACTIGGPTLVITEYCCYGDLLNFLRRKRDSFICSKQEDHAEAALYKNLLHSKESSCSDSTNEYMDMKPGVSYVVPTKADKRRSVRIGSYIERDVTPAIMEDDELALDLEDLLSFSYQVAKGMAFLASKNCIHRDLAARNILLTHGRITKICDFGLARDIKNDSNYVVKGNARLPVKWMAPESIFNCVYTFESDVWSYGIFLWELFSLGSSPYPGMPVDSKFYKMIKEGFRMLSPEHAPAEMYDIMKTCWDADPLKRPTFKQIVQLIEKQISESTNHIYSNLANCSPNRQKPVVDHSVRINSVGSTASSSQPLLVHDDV

Turning to `Cn1ncc(-c2ccc(CNc3cc(-c4cnc5cc(OCCc6nccn6C)ccn45)ncn3)cc2)n1` [A98, (6-{7-[2-(1-methyl-1H-imidazol-2-yl)-ethoxy]-imidazo[1,2-a]pyridin-3-yl}-pyrimidin-4-yl)-[4-(2-methyl-2H-[1,2,3]triazol-4-yl)-benzyl]-amine], the figures for the IC50 (on c-Kit(V654A); in experiment [1]) were 8.3 nM and 98 nM, respectively.

On to `COc1ccn2c(-c3cc(NCc4ccc(-c5ccc(C)nn5)cc4)ncn3)cnc2c1` [A40, 6-{7-methoxyimidazo[1,2-a]pyridin-3-yl}-N-{[4-(6-methylpyridazin-3-yl)phenyl]methyl}pyrimidin-4-amine], for which the IC50 at c-Kit(V654A) came out at 36 nM; in experiment [1], 1100 nM.

Take `Cn1cc(-c2ccc(CNc3cc(-c4cnc5cc(OCCN6CCN(C7COC7)CC6=O)ccn45)ncn3)cc2)cn1` [A95, 1-[2-({3-[6-({[4-(1-methyl-1H-pyrazol-4-yl)phenyl]methyl}amino)pyrimidin-4-yl]imidazo[1,2-a]pyridin-7-yl}oxy)ethyl]-4-(oxetan-3-yl)piperazin-2-one]: the IC50 at c-Kit(V654A) turned out to be 9.8 nM; in experiment [1], 210 nM.

For `COc1ccn2c(-c3cc(NCc4ccc(-c5cnn(C6CC6)c5)cc4)ncn3)cnc2c1` [A49, [4-(1-cyclopropyl-1H-pyrazol-4-yl)-benzyl]-[6-(7-methoxy-imidazo[1,2-a]pyridin-3-yl)-pyrimidin-4-yl]-amine], the IC50 on c-Kit(V654A) amounted to 7.3 nM; in experiment [1], 89 nM.

Regarding `CN1CCN(CCCOc2ccn3c(-c4cc(NCc5ccc(-c6cnn(C)n6)cc5)ncn4)cnc3c2)CC1` [A96, N-{[4-(2-methyl-2H-1,2,3-triazol-4-yl)phenyl]methyl}-6-{7-[3-(4-methylpiperazin-1-yl)propoxy]imidazo[1,2-a]pyridin-3-yl}pyrimidin-4-amine], the IC50 was 2.9 nM on c-Kit(V654A) and 31 nM in experiment [1].

Regarding `Cn1cc(-c2ccc(CNc3cc(-c4cnc5cc(OCCC[N+]6([O-])CCCC6)ccn45)ncn3)cc2)cn1` [A228, 1-[3-({3-[6-({[4-(1-methyl-1H-pyrazol-4-yl)phenyl]methyl}amino)pyrimidin-4-yl]imidazo[1,2-a]pyridin-7-yl}oxy)propyl]pyrrolidin-1-ium-1-olate], the IC50 at c-Kit(V654A) is 11 nM; in experiment [1] it was 44 nM.

`COc1ccn2c(-c3cc(NCc4ccc(-c5ncc(C)o5)cc4)ncn3)cnc2c1` [A53, [6-(7-methoxy-imidazo[1,2-a]pyridin-3-yl)-pyrimidin-4-yl]-[4-(5-methyl-oxazol-2-yl)-benzyl]-amine]: the IC50 at c-Kit(V654A) was 6.3 nM; in experiment [1], 340 nM.

With `Cn1cc(-c2ccc(CNc3cc(-c4cnc5cc(OCCN6CCOCC6=O)ccn45)ncn3)cc2)cn1` [A92, 4-[2-({3-[6-({[4-(1-methyl-1H-pyrazol-4-yl)phenyl]methyl}amino)pyrimidin-4-yl]imidazo[1,2-a]pyridin-7-yl}oxy)ethyl]morpholin-3-one], the IC50 on c-Kit(V654A) was found to be 8.2 nM; in experiment [1] it was 87 nM.

`Cn1cc(-c2ccc(CNc3cc(-c4cnc5cc(OCCN6CCS(=O)(=O)CC6)ccn45)ncn3)cc2)cn1` [A138, 4-[2-({3-[6-({[4-(1-methyl-1H-pyrazol-4-yl)phenyl]methyl}amino)pyrimidin-4-yl]imidazo[1,2-a]pyridin-7-yl}oxy)ethyl]-1lambda6-thiomorpholine-1,1-dione]: the results for the IC50 (on c-Kit(V654A); in experiment [1]) were 6.9 nM and 64 nM, respectively.

On to `Cn1cc(-c2ccc(CNc3cc(-c4cnc5cc(OC6CCNCC6)ccn45)ncn3)cc2)cn1` [A164, N-{[4-(1-methyl-1H-pyrazol-4-yl)phenyl]methyl}-6-[7-(piperidin-4-yloxy)imidazo[1,2-a]pyridin-3-yl]pyrimidin-4-amine], for which the IC50 amounted to 9 nM at c-Kit(V654A) and 260 nM in experiment [1].

On to `Cn1cc(-c2ccc(CNc3cc(-c4cnc5cc(OCCc6nccn6C)ccn45)ncn3)cc2)cn1` [A111, (6-{7-[2-(1-methyl-1H-imidazol-2-yl)-ethoxy]imidazo[1,2-a]pyridin-3-yl}-pyrimidin-4-yl)-[4-(1-methyl-1H-pyrazol-4-yl)-benzyl]-amine], for which the figures for the IC50 (at c-Kit(V654A); in experiment [1]) were 7.9 nM and 63 nM, respectively.

On to `Cn1cc(-c2ccc(CNc3cc(-c4cnc5cc(OCCN6CCC(F)C6)ccn45)ncn3)cc2)cn1` (centres unmarked) [A89, 6-{7-[2-(3-fluoropyrrolidin-1-yl)ethoxy]imidazo[1,2-a]pyridin-3-yl}-N-{[4-(1-methyl-1H-pyrazol-4-yl)phenyl]methyl}pyrimidin-4-amine], for which the IC50 stood at 8.6 nM at c-Kit(V654A) and 82 nM in experiment [1].

Regarding `CN1CCO[C@H](COc2ccn3c(-c4cc(NCc5ccc(-c6cnn(C)n6)cc5)ncn4)cnc3c2)C1` [A122, {6-[7-((S)-4-methyl-morpholin-2-ylmethoxy)-imidazo[1,2-a]pyridin-3-yl]-pyrimidin-4-yl}-[4-(2-methyl-2H-[1,2,3]triazol-4-yl)-benzyl]-amine], the figures for the IC50 (at c-Kit(V654A); in experiment [1]) were 26 nM and 260 nM, respectively.

Regarding `CC(COc1ccn2c(-c3cc(NCc4ccc(-c5cnn(C)c5)cc4)ncn3)cnc2c1)CN1CCCC1` (centres unmarked) [A235, [4-(1-methyl-1H-pyrazol-4-yl)-benzyl]-{6-[7-(2-methyl-3-pyrrolidin-1-yl-propoxy)-imidazo[1,2-a]pyridin-3-yl]-pyrimidin-4-yl}-amine], the figures for the IC50 (on c-Kit(V654A); in experiment [1]) were 4.3 nM and 87 nM, respectively.

Consider `Cn1cc(-c2ccc(CNc3cc(-c4cnc5cc(OCCCN6CC7(COC7)C6)ccn45)ncn3)cc2)cn1` [A238, [4-(1-methyl-1H-pyrazol-4-yl)-benzyl]-(6-{7-[3-(2-oxa-6-aza-spiro[3.3]hept-6-yl)-propoxy]-imidazo[1,2-a]pyridin-3-yl}-pyrimidin-4-yl)-amine], for which the figures for the IC50 (at c-Kit(V654A); in experiment [1]) were 6.4 nM and 62 nM, respectively.

On to `COc1ccn2c(-c3cc(NCc4ccc(-c5cn(C)nc5N)cc4)ncn3)cnc2c1` [A35, [4-(3-amino-1-methyl-1H-pyrazol-4-yl)-benzyl]-[6-(7-methoxy-imidazo[1,2-a]pyridin-3-yl)-pyrimidin-4-yl]-amine], for which the IC50 on c-Kit(V654A) turned out to be 71 nM; in experiment [1], 890 nM.

On to `Cn1cc(-c2ccc(COc3cc(-c4cnc5cc(OCCN6CCCC6)ccn45)ncn3)cc2)cn1` [A87, 3-{6-[4-(1-methyl-1H-pyrazol-4-yl)-benzyloxy]-pyrimidin-4-yl}-7-(2-pyrrolidin-1-yl-ethoxy)-imidazo[1,2-a]pyridine], for which the IC50 on c-Kit(V654A) was determined as 11 nM; in experiment [1], 500 nM.

As for `Cn1cc(-c2ccc(CNc3cc(-c4cnc5cc(OCCCN6CC(F)(F)C6)ccn45)ncn3)cc2)cn1` [A142, 6-{7-[3-(3,3-difluoroazetidin-1-yl)propoxy]imidazo[1,2-a]pyridin-3-yl}-N-{[4-(1-methyl-1H-pyrazol-4-yl)phenyl]methyl}pyrimidin-4-amine], the IC50 was found to be 7.3 nM on c-Kit(V654A) and 65 nM in experiment [1].

For the compound `Cn1ccc(-c2ccc(CNc3cc(-c4cnc5ccccn45)ncn3)cc2)n1` [A14, (6-Imidazo[1,2-a]24yridine-3-yl-pyrimidin-4-yl)-[4-(1-methyl-1H-pyrazol-3-yl)-benzyl]-amine], the IC50 on c-Kit(V654A) was 5.5 nM; in experiment [1], 200 nM.

For `Cn1ncc(-c2ccc(CNc3cc(-c4cnc5cc(OCC6CCN(CC(F)F)CC6)ccn45)ncn3)cc2)n1` [A193, (6-{7-[1-(2,2-difluoro-ethyl)-piperidin-4-ylmethoxy]-imidazo[1,2-a]pyridin-3-yl}-pyrimidin-4-yl)-[4-(2-methyl-2H-[1,2,3]triazol-4-yl)-benzyl]-amine], the results for the IC50 (at c-Kit(V654A); in experiment [1]) were 19 nM and 26 nM, respectively.

Take `COc1ccn2c(-c3cc(NCc4ccc(C(=O)N(C)C)cc4)ncn3)cnc2c1` [A13, 4-{[(6-{7-methoxyimidazo[1,2-a]pyridin-3-yl}pyrimidin-4-yl)amino]methyl}-N,N-dimethylbenzamide]: the IC50 at c-Kit(V654A) is 100 nM; in experiment [1], 2300 nM.

Turning to `CN1CCN(CCOc2ccn3c(-c4cc(NCc5ccc(-c6cnn(C)c6)cc5)ncn4)cnc3c2)CC1=O` [A93, 1-methyl-4-[2-({3-[6-({[4-(1-methyl-1H-pyrazol-4-yl)phenyl]methyl}amino)pyrimidin-4-yl]imidazo[1,2-a]pyridin-7-yl}oxy)ethyl]piperazin-2-one], the IC50 stood at 13 nM on c-Kit(V654A) and 110 nM in experiment [1].

(Values after US12655142B2 (Merck Patent GmbH, priority 2019, dated 2026).)
